Where two headings read alike, the source gives them in different places.
Experiments:
[1] = molecular target: T1, GSK3α (Homo sapiens, UniProt P49840); conditions: for IC50: read-out: Caliper Assay, GSK3α IC50
[2] = molecular target: T2, GSK3β (Homo sapiens, UniProt P49841)
[3] = molecular target: T2, GSK3β; assay: biochemical
[4] = molecular target: T1, GSK3α; assay: biochemical
[5] = Caliper assay, GSK3β over GSK3α

T2 sequence (P49841 whole entry): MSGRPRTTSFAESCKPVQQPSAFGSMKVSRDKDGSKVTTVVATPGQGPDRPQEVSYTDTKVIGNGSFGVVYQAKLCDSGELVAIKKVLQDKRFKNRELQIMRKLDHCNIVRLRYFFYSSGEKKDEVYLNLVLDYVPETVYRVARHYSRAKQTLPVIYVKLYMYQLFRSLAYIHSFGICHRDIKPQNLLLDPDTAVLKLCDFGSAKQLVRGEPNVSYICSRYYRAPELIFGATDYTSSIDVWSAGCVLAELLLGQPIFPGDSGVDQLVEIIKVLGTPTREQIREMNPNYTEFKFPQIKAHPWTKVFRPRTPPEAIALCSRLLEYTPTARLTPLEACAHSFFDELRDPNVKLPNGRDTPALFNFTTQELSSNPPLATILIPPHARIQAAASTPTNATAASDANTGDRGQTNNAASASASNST
T1 sequence (P49840 whole entry): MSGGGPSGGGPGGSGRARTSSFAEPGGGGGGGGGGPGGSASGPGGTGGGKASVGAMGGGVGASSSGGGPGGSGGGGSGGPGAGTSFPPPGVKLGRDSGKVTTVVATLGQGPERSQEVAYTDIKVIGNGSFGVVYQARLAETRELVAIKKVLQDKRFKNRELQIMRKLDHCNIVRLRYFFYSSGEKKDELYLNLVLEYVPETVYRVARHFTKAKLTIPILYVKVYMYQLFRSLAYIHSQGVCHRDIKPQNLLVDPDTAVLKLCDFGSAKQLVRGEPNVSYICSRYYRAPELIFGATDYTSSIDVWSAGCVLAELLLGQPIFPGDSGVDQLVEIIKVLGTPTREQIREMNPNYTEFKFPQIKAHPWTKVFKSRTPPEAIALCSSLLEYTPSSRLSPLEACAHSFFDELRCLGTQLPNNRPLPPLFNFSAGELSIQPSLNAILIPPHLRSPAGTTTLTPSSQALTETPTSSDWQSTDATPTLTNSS

| SMILES | GSK3β fold selectivity [2, 5] [fold] | IC50 [3] [nM] | IC50 [4] [nM] | also measured |
| --- | --- | --- | --- | --- |
| CC1(C)CC(=O)C2=C(C1)Nc1n[nH]c(C3CC3)c1C2(C)c1cccc(C(F)(F)F)c1 (centres unmarked) [Compound 118] | – | – | – | GSK3α fold selectivity [1]: 1.1 fold |
| CC(C)(C)Cc1[nH]nc2c1[C@](C)(c1ccccc1)C1=C(CC(C)(C)CC1=O)N2 (stereo in doubt) [Compound 272] | 14.3 | 15 | 215 | – |
| CC(C)(C)Cc1[nH]nc2c1C(C)(c1ccc(F)cc1)C1=C(CC(C)(C)CC1=O)N2 (racemic) [Compound 275] | 6.7 | 215 | 1430 | – |
| CC1(C)CC(=O)C2=C(C1)Nc1n[nH]c(C3CCCC3)c1[C@@]2(C)c1ccccc1 (stereo in doubt) [Compound 302] | 5.2 | 5280 | 27500 | – |
| CC(C)(C)Cc1[nH]nc2c1[C@]1(CCc3ccccc31)C1=C(CC(C)(C)CC1=O)N2 (stereo in doubt) [Compound 283] | 9.0 | 212 | 1910 | – |
| CC1(C)CC(=O)C2=C(C1)Nc1n[nH]c(C3CC(F)(F)C3)c1[C@@]21CCc2cc(F)ccc21 [Compound 265] | – | 81 | 710 | GSK3β fold selectivity [2]: 8.8 fold |
| CCC(C)(C)Cc1[nH]nc2c1C(C)(c1ccccc1)C1=C(CC(C)(C)CC1=O)N2 (racemic) [Compound 290] | 8.6 | 44 | 379 | – |
| CC1(C)CC(=O)C2=C(C1)Nc1n[nH]c(C3CC(F)(F)C3)c1[C@]21CCc2ccccc21 [Compound 260] | – | 53 | 444 | GSK3β fold selectivity [2]: 8.4 fold |
| CC1(C)CC(=O)C2=C(C1)Nc1n[nH]c(Cc3ccccc3)c1[C@]2(C)c1ccccc1 (stereo in doubt) [Compound 327] | 3.3 | 185 | 607 | – |
| CC1(C)CC(=O)C2=C(C1)Nc1n[nH]c(C3CC(F)(F)C3)c1C21CCCc2ccccc21 (centres unmarked) [Compound 267] | – | 38 | 342 | GSK3β fold selectivity [2]: 9.0 fold |
| CC1(C)CC(=O)C2=C(C1)Nc1n[nH]c(C3CC(F)(F)C3)c1C21CCc2cc(F)ccc21 (racemic) [Compound 264] | – | 206 | 1490 | GSK3β fold selectivity [2]: 7.2 fold |
| CC(C)(C)Cc1[nH]nc2c1[C@](C)(c1ccc(F)cc1)C1=C(CC(C)(C)CC1=O)N2 (stereo in doubt) [Compound 276] | 10.2 | 104 | 1060 | – |
| CC1(C)CC(=O)C2=C(C1)Nc1n[nH]c(C3CC(F)(F)C3)c1[C@]2(C)c1ccccc1 (stereo in doubt) [Compound 127] | 7.8 | 10 | 78 | GSK3β fold selectivity ([2]; GSK3β over GSK3α): 6.4 fold |
| COC(=O)c1[nH]nc2c1C(C)(c1ccccc1)C1=C(CC(C)(C)CC1=O)N2 (centres unmarked) [Compound 104] | – | – | – | GSK3α fold selectivity ([1]; GSK3α over GSK3β): 1.5 fold |
| CC1(C)CC(=O)C2=C(C1)Nc1n[nH]c(C3CC(F)(F)C3)c1[C@@]21CCOc2ccccc21 [Compound 269] | – | 18 | 164 | GSK3β fold selectivity [2]: 9.1 fold |
| CC1(C)CC(=O)C2=C(C1)Nc1n[nH]c(C3CC3)c1C2(C)c1ccccc1F (centres unmarked) [Compound 116] | – | – | – | GSK3α fold selectivity ([1]; GSK3α over GSK3β): 1.1 fold |
| Cc1[nH]nc2c1[C@@](C)(c1cccc(C#N)c1)C1=C(CC(C)(C)CC1=O)N2 [Compound 97, 3-(1,6,6,9-tetramethyl-8-oxo-4,5,6,7,8,9-hexahydro-2H-pyrazolo[3,4-b]quinolin-9-yl)benzonitrile] | – | – | – | GSK3α fold selectivity ([1]; GSK3α over GSK3β): 5.9 fold |
| CCC(C)(C)Cc1[nH]nc2c1[C@@]1(CCc3cc(F)ccc31)C1=C(CC(C)(C)CC1=O)N2 (stereo in doubt) [Compound 293] | 11.3 | 127 | 1440 | – |
| CCC(C)(C)Cc1[nH]nc2c1[C@@](C)(c1ccccc1)C1=C(CC(C)(C)CC1=O)N2 (stereo in doubt) [Compound 292] | 4.0 | 3020 | 12000 | – |
| CC(C)(C)Cc1[nH]nc2c1[C@@]1(CCOc3ccccc31)C1=C(CC(C)(C)CC1=O)N2 (stereo in doubt) [Compound 288] | 7.7 | 18 | 139 | – |
| COc1ccccc1[C@@]1(C)C2=C(CC(C)(C)CC2=O)Nc2n[nH]c(C3CC(F)(F)C3)c21 (stereo in doubt) [Compound 255] | 2.1 | 13400 | 28000 | – |
| CC1(C)CC(=O)C2=C(C1)Nc1n[nH]c(C3CC(F)(F)C3)c1[C@@]2(C)c1ccccc1 (stereo in doubt) [Compound 128] | 17.6 | 468 | 8220 | GSK3β fold selectivity ([2]; GSK3β over GSK3α): 17.6 fold |
| CC1(C)CC(=O)C2=C(C1)Nc1n[nH]c(C3CC(F)(F)C3)c1[C@]21COc2ccccc21 [Compound 257] | – | 21 | 339 | GSK3β fold selectivity [2]: 16.1 fold |

| SMILES | GSK3β fold selectivity [2, 5] [fold] | IC50 [3] [nM] | IC50 [4] [nM] | also measured |
| --- | --- | --- | --- | --- |
| COc1ccccc1[C@H]1C2=C(CC(C)(C)CC2=O)Nc2n[nH]c(CC(C)(C)C)c21 (stereo in doubt) [Compound 279] | 9.6 | 14 | 135 | – |
| CC1(C)CC(=O)C2=C(C1)Nc1n[nH]c(C(F)(F)F)c1C2c1cccc(OC(F)(F)F)c1 (centres unmarked) [Compound 57] | – | < 100 | – | IC50 [1]: < 100 nM |
| CC(C)c1[nH]nc2c1C(C)(c1ccccc1)C1=C(CC(C)(C)CC1=O)N2 (centres unmarked) [Compound 296] | 3.2 | 76 | 241 | – |
| CC1(C)CC(=O)C2=C(C1)Nc1n[nH]c(C3CCCCC3)c1[C@@]2(C)c1ccccc1 (stereo in doubt) [Compound 305] | 3.4 | 5060 | 17400 | – |
| CC1(C)CC(=O)C2=C(C1)Nc1n[nH]c(Br)c1C2(C)c1ccccc1 (centres unmarked) [Compound 111] | – | – | – | GSK3α fold selectivity ([1]; GSK3α over GSK3β): 3.1 fold |
| COc1ccccc1[C@H]1C2=C(CC(C)(C)CC2=O)Nc2n[nH]c(C3CC(F)(F)C3)c21 (stereo in doubt) [Compound 251] | 14.9 | 84 | 1250 | – |
| CC(C)c1[nH]nc2c1[C@@](C)(c1ccccc1)C1=C(CC(C)(C)CC1=O)N2 (stereo in doubt) [Compound 298] | 2.1 | 229 | 479 | – |
| Cc1[nH]nc2c1C1(CCCC1)C1=C(CC(C)(C)CC1=O)N2 [Compound 102] | – | – | – | GSK3α fold selectivity ([1]; GSK3α over GSK3β): 1.9 fold |
| CC1(C)CC(=O)C2=C(C1)Nc1n[nH]c(C3CC(F)(F)C3)c1C21CCc2c(F)cccc21 (racemic) [Compound 261] | – | 56 | 426 | GSK3β fold selectivity [2]: 7.6 fold |
| COc1cc(F)ccc1[C@@H]1C2=C(CC(C)(C)CC2=O)Nc2n[nH]c(C(C)C)c21 [Compound 324] | 2.8 | 332 | 920 | – |
| Cc1[nH]nc2c1[C@](C)(c1ccccc1)C1=C(CC(C)(C)CC1=O)N2 [Compound 123] | – | < 100 | – | GSK3α fold selectivity ([1]; GSK3α over GSK3β): 3.6 fold |
| COc1ccccc1[C@]1(C)C2=C(CC(C)(C)CC2=O)Nc2n[nH]c(C3CC(F)(F)C3)c21 (stereo in doubt) [Compound 254] | 3.7 | 2520 | 9330 | – |
| CC1(C)CC(=O)C2=C(C1)Nc1n[nH]c(Cl)c1C2(C)c1ccccc1 (centres unmarked) [Compound 110] | – | – | – | GSK3α fold selectivity ([1]; GSK3α over GSK3β): 1.8 fold |
| CC(C)c1[nH]nc2c1[C@@](C)(c1ccccc1F)C1=C(CC(C)(C)CC1=O)N2 (stereo in doubt) [Compound 313] | 11.3 | 385 | 4340 | – |
| COc1ccccc1[C@H]1C2=C(CC(C)(C)CC2=O)Nc2n[nH]c(C(C)C)c21 [Compound 295] | 8.1 | 57 | 462 | – |
| CC1(C)CC(=O)C2=C(C1)Nc1n[nH]c(C3CCCC3)c1C2(C)c1ccccc1 (racemic) [Compound 300] | 3.5 | 439 | 1520 | – |
| CCC(C)(C)Cc1[nH]nc2c1[C@]1(CCc3cc(F)ccc31)C1=C(CC(C)(C)CC1=O)N2 (stereo in doubt) [Compound 294] | 6.1 | 785 | 4760 | – |
| COc1ccccc1C1C2=C(CC(C)(C)CC2=O)Nc2n[nH]c(C3CC(F)(F)C3)c21 (racemic) [Compound 250] | 13.1 | 30 | 392 | – |
| CC1(C)CC(=O)C2=C(C1)Nc1n[nH]c(C3CC(F)(F)C3)c1[C@]2(C)c1cccc(C(F)(F)F)c1 (stereo in doubt) [Compound 248] | 2.9 | 30 | 86 | – |
| CC(C)c1[nH]nc2c1[C@]1(CCc3ccccc31)C1=C(CC(C)(C)CC1=O)N2 (stereo in doubt) [Compound 243] | 6.6 | 27 | 178 | – |
| CC1(C)CC(=O)C2=C(C1)Nc1n[nH]c(C3CCCCC3)c1C2(C)c1ccccc1 (racemic) [Compound 303] | 2.5 | 746 | 1850 | – |
| Cc1[nH]nc2c1[C@@](c1ccccc1)(C(F)(F)F)C1=C(CC(C)(C)CC1=O)N2 [Compound 93, 1,6,6-trimethyl-9-phenyl-9-(trifluoromethyl)-5,6,7,9-tetrahydro-2H-pyrazolo[3,4-b]quinolin-8(4H)-one] | – | – | – | IC50 [1]: < 100 nM |
| CC1(C)CC(=O)C2=C(C1)Nc1n[nH]c(C3CC(F)(F)C3)c1[C@@]2(C)c1cccc(C(F)(F)F)c1 (stereo in doubt) [Compound 249] | 3.1 | 1550 | 4790 | – |
